Data set [1] deals with phosphorylation of STAT1 in THP-1 cells. The experiment in a line: western blot of STING downstream signalling. Format: cell-based, human. Conditions: cGAMP (1 μg/mL) then 18p, 6 h. On the procedure:
(§1) To evaluate whether 18p induced desired immune response via activation of STING pathway, we investigated the activation of downstream effector proteins, IRF3 and STAT1 that were known as major regulatory proteins of STING and IFN-β, respectively.
(§2) Figure 6. Western blot analysis for STING downstream signalling pathway. THP-1 cells were treated with cGAMP (1 μg/mL) first, and then treated with either DMSO or 18p at indicated concentration for 6 h. Tubulin was used as a loading control.
(§3) Cells were washed by PBS and harvested with RIPA buffer (Bioseasang). After centrifugation with 20,000 × g for 20 min at 4 °C. Cell lysates were separated by SDS-polyacrylamide gel electrophoresis and transferred on PVDF membranes through the Trans-Blot Turbo Transfer System (Bio-Rad). The membranes were blocked in 5% BSA in TBST for 1 h at room temperature and followed by incubation with primary antibody solution for overnight. […] After washing with TBST, all antibodies were detected by anti-rabbit-HRP-linked secondary antibody (Cell signalling/no. 7074, 1:3000). β-Tubulin was used as a loading control for the amount of total protein. Luminescence signal was detected using ECL reagent and immunoreactive bands were captured with the ChemiDoc imaging systems (Bio-Rad).
In general terms: A western blot detects proteins with antibodies after separation by electrophoresis.

In data set [2] the test system is phosphorylation of IRF3 in THP-1 cells. The experiment in a line: western blot of STING downstream signalling. It counts as cell-based, human. To be noted: cGAMP (1 μg/mL) then 18p, 6 h. On the procedure:
as §1, §2, §3

Data set [3] is described as follows: pharmacokinetics in BALB/c mice. It counts as in vivo.

Where a name gives a salt, the structure may show the parent alone.

With `CC1(CNS(N)(=O)=O)CCN(c2ncnc3[nH]ccc23)CC1` [18p, N-((4-Methyl-1-(7H-pyrrolo[2,3-d]pyrimidin-4-yl)piperidin-4-yl)methyl)methanesulfamide hydrochloride], in data set [1], the “phosphorylation of STAT1” value was “increased phosphorylation of IRF3 and STAT1 was observed in dose-dependent manner”. Further, the “phosphorylation of IRF3” value in data set [2] is “increased phosphorylation of IRF3 and STAT1 was observed in dose-dependent manner”. Further, in data set [3] (IV, 1 mg/kg), the “CI” value is 125 mL/min/kg. Further, in data set [3] (mouse, plasma, IV, 1 mg/kg), the AUC (as a rule, concentration integrated over time) was 126 ng·h/mL; the AUC(0-t) (usually the area under the concentration-time curve up to a stated or last time point) came out at 125 ng·h/mL; the maximum concentration (Cmax) (usually the highest concentration seen after dosing) was found to be 303 ng/mL; the Tmax (in general, the time from dosing to the highest level) was 4.98 min. In data set [3] (mouse, plasma, IV, 1 mg/kg), the half-life (usually the time needed for the level to fall by half in the phase considered) is 15 min. Also, the Vd in data set [3] (mouse, plasma, IV, 1 mg/kg, read-out: Vss) is 2.3 L/kg. Also, in data set [3] (mouse, plasma, PO 10 mg/kg vs IV 1 mg/kg), the bioavailability – broadly, dose-corrected exposure relative to a reference, in per cent – was greater than 100%. In data set [3] (mouse, plasma, PO, 10 mg/kg), the area under the curve (AUC) was 1700 ng·h/mL, the AUC(0-t) was found to be 1690 ng·h/mL, the Cmax is 1550 ng/mL and the time to peak (Tmax) was 30 min. In data set [3] (mouse, plasma, PO, 10 mg/kg), this molecule gave a half-life of 93.6 min.
